Assay results reported in ChEMBL document CHEMBL1142249, “Identification and optimization of a novel series of [2.2.1]-oxabicyclo imide-based androgen receptor antagonists” (Bioorg Med Chem Lett, 2008).

Columns and labels:
Androgen receptor [1] = target: T1, Androgen receptor (Homo sapiens, UniProt P10275); experiment: Displacement of [3H]DHT from human androgen receptor in MDA453 cells
T1 sequence (P10275 whole entry): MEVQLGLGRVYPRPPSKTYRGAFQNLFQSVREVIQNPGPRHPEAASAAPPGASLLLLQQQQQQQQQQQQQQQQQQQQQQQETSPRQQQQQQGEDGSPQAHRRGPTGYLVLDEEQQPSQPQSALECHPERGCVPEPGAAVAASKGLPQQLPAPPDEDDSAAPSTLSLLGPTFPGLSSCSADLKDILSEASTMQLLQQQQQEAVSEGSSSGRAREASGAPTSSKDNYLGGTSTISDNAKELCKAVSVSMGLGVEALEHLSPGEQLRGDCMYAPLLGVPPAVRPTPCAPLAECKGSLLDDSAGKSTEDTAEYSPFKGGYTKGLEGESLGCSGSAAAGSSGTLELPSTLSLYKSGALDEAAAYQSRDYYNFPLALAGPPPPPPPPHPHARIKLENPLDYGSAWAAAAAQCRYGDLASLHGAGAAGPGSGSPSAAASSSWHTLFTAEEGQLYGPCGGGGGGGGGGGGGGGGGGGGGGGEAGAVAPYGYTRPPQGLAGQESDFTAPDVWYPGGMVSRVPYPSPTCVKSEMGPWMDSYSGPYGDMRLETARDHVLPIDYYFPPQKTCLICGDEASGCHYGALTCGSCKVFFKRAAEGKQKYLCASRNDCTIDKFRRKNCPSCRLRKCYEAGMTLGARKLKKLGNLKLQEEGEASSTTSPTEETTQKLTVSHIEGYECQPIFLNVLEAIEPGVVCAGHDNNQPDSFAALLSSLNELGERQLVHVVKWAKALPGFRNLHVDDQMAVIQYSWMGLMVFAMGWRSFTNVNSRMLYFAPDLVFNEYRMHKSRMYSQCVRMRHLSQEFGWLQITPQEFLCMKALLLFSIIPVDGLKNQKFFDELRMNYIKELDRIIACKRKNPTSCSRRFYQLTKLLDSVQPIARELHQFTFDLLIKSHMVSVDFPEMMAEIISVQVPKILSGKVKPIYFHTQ

Androgen receptor [2] = target: T1, Androgen receptor
Description: Antagonist activity at human androgen receptor in MDA453 cells by alkaline phosphatase reporter gene assay

[3] = AUC (0 to 6 hrs) in BALB/c mouse at 1.0 mmol/kg, po; assay type: ADME, organism-based; set-up: dose 1 mmol/kg, time < 6 hr, route oral; details: plasma
[4] = Tmax in BALB/c mouse at 1.0 mmol/kg, po; assay type: ADME, organism-based; details: in vivo
[5] = Cmax in BALB/c mouse at 1.0 mmol/kg, po; assay type: ADME, organism-based; set-up: dose 1 mmol/kg, route oral; details: in vivo
Liver microsomes = experiment: Metabolic stability in human liver microsome assessed per milligram of protein; assay type: ADME
[6] = Drug level in human CWR22R cells xenografted mouse plasma at 90 mg/kg, po after 1 hr on day 60; assay type: ADME, organism-based; set-up: dose 90 mg/kg, route oral; details: read-out: Drug uptake
[7] = Drug level in human CWR22R cells xenografted mouse plasma at 10 mg/kg, po after 24 hrs on day 60; assay type: ADME, organism-based; set-up: dose 10 mg/kg, route oral; details: read-out: Drug uptake
[8] = Drug level in human CWR22R cells xenografted mouse plasma at 90 mg/kg, po after 24 hrs on day 60; assay type: ADME, organism-based; set-up: dose 90 mg/kg, route oral; details: read-out: Drug uptake
[9] = Drug level in human CWR22R cells xenografted mouse plasma at 10 mg/kg, po after 1 hr on day 60; assay type: ADME, organism-based; set-up: dose 10 mg/kg, route oral; details: read-out: Drug uptake
[10] = Drug level in human CWR22R cells xenografted mouse plasma at 50 mg/kg, po after 24 hrs on day 60; assay type: ADME, organism-based; set-up: dose 50 mg/kg, route oral; details: read-out: Drug uptake
[11] = Drug level in human CWR22R cells xenografted mouse plasma at 50 mg/kg, po after 1 hr on day 60; assay type: ADME, organism-based; set-up: dose 50 mg/kg, route oral; details: read-out: Drug uptake

SMILES: CC(C)(C)OC(=O)N1CC2CC1[C@@H]1C(=O)N(c3ccc(C#N)c(C(F)(F)F)c3)C(=O)N21 (some centres undefined)
- Ki (Androgen receptor [1]): 0.04 µM
- IC50 (Androgen receptor [2]): 0.774 µM

SMILES: O=C1[C@@H]2C3CCC(O3)[C@@H]2C(=O)N1c1ccc(Cl)c(C(F)(F)F)c1
- Ki (Androgen receptor [1]): 1.11 µM
- IC50 (Androgen receptor [2]): 3.31 µM

SMILES: CC12CCC(C)(O1)[C@H]1C(=O)N(c3ccc(C#N)c(C(F)(F)F)c3)C(=O)[C@H]12
- Ki (Androgen receptor [1]): 0.017 µM
- IC50 (Androgen receptor [2]): 0.007 µM

SMILES: O=C1[C@@H]2C3CCC(C3)[C@@H]2C(=O)N1c1cccc(C(F)(F)F)c1
- Ki (Androgen receptor [1]): 0.36 µM
- AUC(0-t) at 6 h [3]: 0.056 µM·h
- IC50 (Androgen receptor [2]): 0.152 µM
- Tmax [4]: 30 min
- Cmax [5]: 0.023 µM

SMILES: CC12CCC(C)(O1)[C@H]1C(=O)N(c3c(N)ccc4ncsc34)C(=O)[C@H]12
- Ki (Androgen receptor [1]): 0.017 µM
- IC50 (Androgen receptor [2]): 0.12 µM

SMILES: CC12CCC(O1)[C@H]1C(=O)N(c3cccc(C(F)(F)F)c3)C(=O)[C@H]12 (some centres undefined)
- Ki (Androgen receptor [1]): 0.41 µM
- IC50 (Androgen receptor [2]): 0.343 µM

SMILES: O=C1[C@@H]2C3CCC(O3)[C@@H]2C(=O)N1c1cccc(C(F)(F)F)c1
- Ki (Androgen receptor [1]): 4.1 µM
- IC50 (Androgen receptor [2]): 11.5 µM

SMILES: CC12CCC(C)(O1)[C@H]1C(=O)N(c3cccc(C(F)(F)F)c3)C(=O)[C@H]12
- Ki (Androgen receptor [1]): 0.041 µM
- IC50 (Androgen receptor [2]): 0.036 µM

SMILES: CC12CCC(C)(O1)[C@H]1C(=O)N(c3cnc(C#N)c(Cl)c3)C(=O)[C@H]12
- Ki (Androgen receptor [1]): 0.004 µM
- IC50 (Androgen receptor [2]): 0.038 µM

SMILES: CC12C[C@H](O)C(C)(O1)[C@@H]1C(=O)N(c3ccc(C#N)c(I)c3)C(=O)[C@@H]12 (some centres undefined)
- Ki (Androgen receptor [1]): 0.00718 µM
- IC50 (Androgen receptor [2]): 0.01 µM
- Stability (Liver microsomes): 0.001 mmol/min/mg
- concentration at 1 h [6]: 55.5 µM
- concentration at 24 h [7]: 8 µM
- concentration at 24 h [8]: 23.6 µM
- concentration at 1 h [9]: 26 µM

SMILES: CC12CCC(C)(O1)[C@H]1C(=O)N(c3ccc(C#N)c(I)c3)C(=O)[C@H]12
- Ki (Androgen receptor [1]): 0.001 µM
- IC50 (Androgen receptor [2]): 0.007 µM
- Stability (Liver microsomes): 0.8 mmol/min/mg

SMILES: N#Cc1ccc(N2C(=O)[C@@H]3C4CCC(O4)[C@@H]3C2=O)cc1C(F)(F)F
- Ki (Androgen receptor [1]): 1.17 µM
- IC50 (Androgen receptor [2]): 2.86 µM

SMILES: O=C1[C@@H]2C3CCC(O3)[C@@H]2C(=O)N1c1ccc(Br)c2ccccc12
- Ki (Androgen receptor [1]): 0.053 µM
- IC50 (Androgen receptor [2]): 0.67 µM

SMILES: CC12CCC(C)(O1)[C@H]1C(=O)N(c3ccc([N+](=O)[O-])c4c(Br)cccc34)C(=O)[C@H]12
- Ki (Androgen receptor [1]): 0.017 µM
- IC50 (Androgen receptor [2]): 0.04 µM

SMILES: CC12C[C@@H](O)C(C)(O1)[C@H]1C(=O)N(c3ccc(C#N)c(I)c3)C(=O)[C@H]12 (some centres undefined)
- Ki (Androgen receptor [1]): 0.00241 µM
- IC50 (Androgen receptor [2]): 0.019 µM
- Stability (Liver microsomes): 0.04 mmol/min/mg

SMILES: CC12CCC(C)(O1)[C@H]1C(=O)N(c3c(N)ccc4nccn34)C(=O)[C@H]12
- Ki (Androgen receptor [1]): 0.027 µM
- IC50 (Androgen receptor [2]): 0.07 µM

SMILES: Cc1cc(N2C(=O)[C@@H]3C4CCC(O4)[C@@H]3C2=O)ccc1Cl
- Ki (Androgen receptor [1]): 0.077 µM
- IC50 (Androgen receptor [2]): 0.5 µM

SMILES: CSc1cc(N2C(=O)[C@@H]3[C@H](C2=O)C2(C)CCC3(C)O2)ccc1C#N
- Ki (Androgen receptor [1]): 0.003 µM
- IC50 (Androgen receptor [2]): 0.019 µM

SMILES: CC(O)(CS(=O)(=O)c1ccc(F)cc1)C(=O)Nc1ccc(C#N)c(C(F)(F)F)c1 (centres undefined) [BICALUTAMIDE]
- AUC(0-t) at 6 h [3]: 786 µM·h
- Tmax [4]: 30 min
- Cmax [5]: 110 µM
- concentration at 24 h [10]: 86 µM
- concentration at 1 h [11]: 48.5 µM

SMILES: O=C1[C@@H]2C3CCC(O3)[C@@H]2C(=O)N1c1ccc([N+](=O)[O-])c2ccccc12
- Ki (Androgen receptor [1]): 0.003 µM
- AUC(0-t) at 6 h [3]: 11.4 µM·h
- IC50 (Androgen receptor [2]): > 5 µM
- Tmax [4]: 30 min
- Cmax [5]: 100 µM

SMILES: O=C1[C@@H]2C3CCC(O3)[C@@H]2C(=O)N1c1ccc(Cl)c([N+](=O)[O-])c1
- Ki (Androgen receptor [1]): 0.692 µM
- IC50 (Androgen receptor [2]): 1.15 µM

SMILES: Cc1ccc(N2C(=O)[C@@H]3C4CCC(O4)[C@@H]3C2=O)cc1Cl
- Ki (Androgen receptor [1]): 0.486 µM
- IC50 (Androgen receptor [2]): 2.29 µM

SMILES: O=C1[C@H]2C3CCC(C3)N2C(=O)N1c1cccc(C(F)(F)F)c1 (some centres undefined)
- Ki (Androgen receptor [1]): 0.021 µM
- AUC(0-t) at 6 h [3]: 11.4 µM·h
- IC50 (Androgen receptor [2]): 0.13 µM
- Tmax [4]: 30 min
- Cmax [5]: 1.74 µM

SMILES: CC12CCC(C)(O1)[C@H]1C(=O)N(c3ccc(C#N)c4nsnc34)C(=O)[C@H]12
- Ki (Androgen receptor [1]): 0.003 µM
- IC50 (Androgen receptor [2]): 0.016 µM

SMILES: COc1cc(N2C(=O)[C@@H]3[C@H](C2=O)C2(C)CCC3(C)O2)ccc1-c1cnco1
- Ki (Androgen receptor [1]): 0.012 µM
- IC50 (Androgen receptor [2]): 0.02 µM

SMILES: CC12CCC(C)(O1)[C@H]1C(=O)N(c3ccc([N+](=O)[O-])c(C(F)(F)F)c3)C(=O)[C@H]12
- Ki (Androgen receptor [1]): 0.017 µM
- IC50 (Androgen receptor [2]): 0.011 µM

SMILES: O=C1[C@@H]2C3CCC(O3)[C@@H]2C(=O)N1c1ccc(I)c(Cl)c1
- Ki (Androgen receptor [1]): 0.221 µM
- IC50 (Androgen receptor [2]): 0.35 µM

SMILES: O=C1[C@@H]2C3CCC(O3)[C@@H]2C(=O)N1c1ccc(Cl)c(Cl)c1
- Ki (Androgen receptor [1]): 0.377 µM
- IC50 (Androgen receptor [2]): 0.48 µM

SMILES: CC12CCC(C)(O1)[C@H]1C(=O)N(c3cc(Cl)cc(Cl)c3)C(=O)[C@H]12
- Ki (Androgen receptor [1]): 0.003 µM
- IC50 (Androgen receptor [2]): 0.016 µM

SMILES: CC12CCC(C)(O1)[C@H]1C(=O)N(c3ccc(C#N)n4nccc34)C(=O)[C@H]12
- Ki (Androgen receptor [1]): 0.018 µM
- IC50 (Androgen receptor [2]): 0.088 µM
